Measured values published in PubChem BioAssay AID493130 (Broad Institute, 2011).
Records with an inconclusive call do not appear. Calls of active or inactive are those of the source.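 The calls were made as follows: active = signal-lowering compounds whose fitted half-maximal concentration is at most ten times their highest tested dose; inconclusive = flat fit between -30 and -70%, or poor fit; inactive = flat within 30%, signal rising, or potency beyond limit.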

Biological target: POS-1 (Caenorhabditis elegans) binding to mex-3 RNA
Assay: inhibitors of POS-1/mex-3 RNA binding, dose response, counter-screen for MEX-5 RNA-binding inhibitor project, biochemical, fluorescence polarization, cherry-picked samples, set 2 (AID 493130);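 also: POS-1 as maltose binding protein fusion made in E. coli with FITC RNA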
Settings: POS-1/mex-3 RNA fluorescence polarization, 1 h; for activity change, negative = inhibition: at 10 µM (top of the series)

Row | SMILES | activity change, negative = inhibition | AC50
1 | COc1cccc(CNC23CC4CC(CC(C4)C2)C3)c1OCc1ccccc1 | inactive | –
2 | Cc1nc2c(N=Nc3ccccc3F)c(N)nn2c(N)c1C#N | inactive | –
3 | Cc1cc(C)c[n+](-c2nc([O-])sc2C=O)c1 | inactive | –
4 | N#C/C(=C\c1cccc([N+](=O)[O-])c1)c1nnc2n1CCCCC2 | inactive | –
5 | CN1CN(C)c2ccc([N+](=O)[O-])c3cccc1c23 | inactive | –
6 | CCc1cc[n+](-c2nc3ccccc3nc2[N-]S(=O)(=O)c2ccc(Br)s2)cc1 | – | 1.25 µM
7 | COCCNc1ncnc2nc[nH]c12 | inactive | –
8 | Brc1ccc(C2=CC(c3cccs3)n3ncnc3N2)cc1 (configuration not stated) | – | 1.4 µM
9 | CCOc1cc(/C=N/NC(=O)N/N=C/c2ccc(O)c(OCC)c2)ccc1O | inactive | –
10 | O=C(O)c1cccc(-n2cccc2/C=C/[N+](=O)[O-])c1 | inactive | –
11 | COC(=O)C1CSc2[nH]c(=O)sc2C1c1ccc(O)c(OC)c1 (configuration not stated) | inactive | –
12 | COCCN1CCC(CNCc2cn(-c3cc(C)ccc3C)nc2-c2ccccc2)C1 (configuration not stated) | inactive | –
13 | Nc1nc(N)c2[nH]cnc2n1 | inactive | –
14 | O=c1[nH]c(=S)n(-c2ccccc2F)c(O)c1C=Nc1ccc(N2CCOCC2)cc1 | inactive | –
15 | COc1ccc(-c2cn[nH]c2-c2ccc(O)cc2O)cc1OC | inactive | –
16 | Cc1ccc(S(=O)(=O)c2cc3c(=O)n4cccc(C)c4nc3n(C3CCCCC3)c2=N)cc1 | inactive | –
17 | O=C(O)COc1ccc(Br)cc1C(c1c(C(=O)O)[nH]c2ccccc12)c1c(C(=O)O)[nH]c2ccccc12 | inactive | –
18 | Cc1cccc(NC(=O)CN2C(=O)S/C(=C\c3ccc(-c4cccc(C(=O)O)c4C)o3)C2=O)c1 | inactive | –
19 | COC(=O)CCC(=O)OC1(C)C(=O)C2=CN(Cc3ccccc3)C(c3ccc(OC)cc3)=CC2=C(Br)C1=O (configuration not stated) | inactive | –

Row | SMILES | activity change, negative = inhibition | AC50
20 | Cc1c(C#N)c(O)n(CCO)c(=O)c1N=Nc1ccccc1 | inactive | –
21 | CC(C)(C)OC(=O)NCCCC1=CC2=CC(=O)C(C)(O)C(=O)C2=CO1 (configuration not stated) | inactive | –
22 | COCc1cc(C)nc(N/N=C/c2ccc(-c3cc(C(=O)O)ccc3Cl)o2)c1C#N | inactive | –
23 | CN1CCc2c(sc(NC(=O)c3ccc(S(=O)(=O)N4CCCC4)cc3)c2C(N)=O)C1 | inactive | –
24 | CCS(=O)(=O)c1ccc2oc(=O)c(/C=C(\O)c3ccc(Cl)cc3)nc2c1 | inactive | –
25 | COc1ccc(NC(=S)NNc2ccc(S(=O)(=O)Nc3ccccc3C(=O)O)cc2[N+](=O)[O-])cc1 | – | 4.53 µM
26 | CN1C(=O)/C(=C/c2cn(CC(=O)N3CCCCC3)c3ccccc23)c2ccccc21 | inactive | –
27 | CCOc1cc(/C=N/n2c(C)nc3ccccc3c2=O)ccc1O | inactive | –
28 | COc1ccc(NCc2n[nH]c(=O)c3ccccc23)cc1 | inactive | –
29 | CCC(=O)N(CC)C1=C(O)c2ccccc2C(=O)C1=O | inactive | –
30 | O=C(O)C1Nc2c(Cl)cc(Cl)cc2C2C=CCC12 (configuration not stated) | – | 5.13 µM
31 | COc1ccc(C2c3sc(=O)[nH]c3SCC2C(N)=O)cc1 (configuration not stated) | inactive | –
32 | CCc1ccc(N2C(=O)NC(=O)/C(=C/c3cccn3CCOc3ccc(C(C)CC)cc3)C2=O)cc1 (configuration not stated) | inactive | –
33 | COCC1CCN(Cc2c(C(=O)N3CCc4ccccc4C3)nc3ccc(Cl)cn23)C1 (configuration not stated) | – | > 10 µM (inactive)
34 | CN1Cc2sc(N)c(C#N)c2CC1(C)C | – | 9.75 µM
35 | COc1ccc(N/C=C/C(=O)c2ccc3c(c2)OCO3)cc1OC | inactive | –
36 | Cc1cc(=O)oc(C)c1C(=O)Nc1c(C)n(C)n(-c2ccccc2)c1=O | inactive | –
37 | CCc1nc2ccccc2c(=O)n1/N=C/c1ccc(OC)cc1 | inactive | –
